Laboratory results from ChEMBL document CHEMBL1201862, “PubChem BioAssay data set” (2004).
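Five concentrations, 48 hours, 96-well plates. GI50 is the concentration that inhibits growth by half.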 The source made the active and inactive calls. Rule as the data show it: active = GI50 up to about 1.1 µM and inactive = higher.

What was measured:
Experiment in all cases: DTP human tumour cell line panel, 48 h
[1] = system: SK-OV-3
[2] = system: SR
[3] = system: HOP-62
[4] = system: Malme-3M
[5] = system: DU-145
[6] = system: MDA-MB-231
[7] = system: CAKI-1
[8] = system: NCI-H460
[9] = system: RXF 393
[10] = system: ACHN
[11] = system: HCC 2998
[12] = system: OVCAR-3
[13] = system: A549
[14] = system: SW-620
[15] = system: MCF7
[16] = system: 786-0
[17] = system: SN12C
[18] = system: MDA-N
[19] = system: UO-31
[20] = system: OVCAR-8

Measured: GI50

CCC(C)C(=O)O[C@H]1C(=O)O[C@@H]2C[C@H]3C(C)=CC(=O)[C@@H](O)[C@]3(C)[C@H]3[C@@H](O)[C@H](O)[C@@]4(C)OC[C@]32[C@@H]14 (stereo not given in full)
active: [1] 0.0832 µM | [2] 0.01 µM | [3] < 0.0221 µM | [4] < 0.0152 µM | [5] < 0.01 µM | [6] < 0.01 µM | [7] < 0.0455 µM | [8] < 0.0135 µM | [9] 0.015 µM | [10] < 0.0156 µM | [11] < 0.0147 µM | [12] 0.0169 µM | [13] 0.141 µM | [14] < 0.0162 µM | [15] < 0.01 µM | [16] < 0.0194 µM | [17] < 0.01 µM | [18] < 0.01 µM | [19] < 0.0217 µM | [20] < 0.0155 µM

COc1cc(C2c3cc4c(cc3OC(NNC(N)=S)C2C)OCO4)cc(OC)c1OC (stereo not given)
active: [1] 0.53 µM | [2] 0.0811 µM | [3] 0.344 µM | [4] 0.53 µM | [6] 0.4 µM | [7] 0.54 µM | [8] 0.376 µM | [9] 0.279 µM | [10] 0.989 µM | [11] 0.906 µM | [12] 0.349 µM | [13] 0.644 µM | [14] 0.363 µM | [15] 0.457 µM | [16] 0.398 µM | [17] 1.03 µM | [18] 0.084 µM | [19] 0.931 µM | [20] 0.411 µM
inactive: [5] 4.17 µM

CN1CCOC1(C)c1ccccc1 (stereo not given)
inactive: [1] > 100 µM | [2] > 100 µM | [3] > 100 µM | [4] > 100 µM | [5] > 100 µM | [6] > 100 µM | [7] > 100 µM | [8] > 100 µM | [9] > 100 µM | [10] > 100 µM | [11] > 100 µM | [12] > 100 µM | [13] > 100 µM | [14] > 100 µM | [15] > 100 µM | [16] > 100 µM | [17] > 100 µM | [18] > 100 µM | [19] > 100 µM | [20] > 100 µM

C/C(=N\OCC(O)CNCCSCc1ccccc1)c1ccccc1Cl (stereo not given)
inactive: [1] 19.2 µM | [2] 31.7 µM | [3] 19.4 µM | [4] 19.8 µM | [5] 23.3 µM | [6] 18 µM | [7] 17.7 µM | [8] 21.6 µM | [9] 18.7 µM | [10] 18.1 µM | [11] 19.4 µM | [12] 17.9 µM | [13] 19.6 µM | [14] 20 µM | [15] 19.8 µM | [16] 21.4 µM | [17] 18.6 µM | [18] 19.6 µM | [19] 15.7 µM | [20] 14.6 µM

CC(NNC(=O)c1ccncc1)c1ccc(Cl)cc1Cl (stereo not given)
inactive: [1] > 100 µM | [2] 55.3 µM | [3] 88.5 µM | [4] > 100 µM | [5] > 100 µM | [6] > 100 µM | [7] > 100 µM | [8] 51.2 µM | [9] > 100 µM | [10] > 100 µM | [11] > 100 µM | [12] > 100 µM | [13] > 100 µM | [14] > 100 µM | [15] > 100 µM | [16] > 100 µM | [17] > 100 µM | [18] > 100 µM | [19] 38.9 µM | [20] > 100 µM

CCn1c(=N)sc2nc3ccccc3n2c1=O
inactive: [1] > 100 µM | [2] > 100 µM | [3] > 100 µM | [4] > 100 µM | [5] > 100 µM | [6] > 100 µM | [7] > 100 µM | [8] > 100 µM | [9] > 100 µM | [10] > 100 µM | [11] > 100 µM | [12] > 100 µM | [13] > 100 µM | [14] > 100 µM | [15] 9.48 µM | [16] > 100 µM | [17] > 100 µM | [18] > 100 µM | [19] 14.9 µM | [20] > 100 µM

O=C(NCCOC(=O)OCCNC(=O)NC1CCCCC1)NC1CCCCC1
active: [15] 0.834 µM
inactive: [1] 92.5 µM | [2] > 100 µM | [3] 35.6 µM | [4] > 100 µM | [5] > 100 µM | [6] 15.8 µM | [7] > 100 µM | [8] > 100 µM | [9] 72.6 µM | [10] > 100 µM | [11] > 100 µM | [12] > 100 µM | [13] > 100 µM | [14] > 100 µM | [16] > 100 µM | [17] > 100 µM | [18] > 100 µM | [19] 71.3 µM | [20] > 100 µM

O=c1c2c3c(sc2nc2n1N=C(c1ccc(Br)cc1)CS2)CCCC3
inactive: [1] > 100 µM | [2] > 100 µM | [3] > 100 µM | [4] > 100 µM | [5] > 100 µM | [6] > 100 µM | [7] > 100 µM | [8] > 100 µM | [9] > 100 µM | [10] > 100 µM | [11] > 100 µM | [12] > 100 µM | [13] > 100 µM | [14] > 100 µM | [15] > 100 µM | [16] > 100 µM | [17] > 100 µM | [18] > 100 µM | [19] > 100 µM | [20] > 100 µM

S=C(NCCc1ccccn1)c1nc[nH]c1C(=S)NCCc1ccccn1
inactive: [1] > 100 µM | [2] 34 µM | [3] 37.1 µM | [4] 35.4 µM | [5] 30.8 µM | [6] > 100 µM | [7] 57.1 µM | [8] 24.1 µM | [9] 23 µM | [10] 36.3 µM | [11] 76.9 µM | [12] 37.9 µM | [13] 32.3 µM | [14] 32.5 µM | [15] 36.1 µM | [16] 53.3 µM | [17] 68.5 µM | [18] 41.7 µM | [19] 29 µM | [20] 28.4 µM

Cc1cc(C(=C2C=CC(=N)C=C2)c2ccc(N)cc2)ccc1N [FUCHSIN, BASIC]
active: [3] 0.724 µM | [16] 1.09 µM | [17] 0.299 µM
inactive: [1] 3.58 µM | [2] 13.3 µM | [4] 2.65 µM | [5] 5.4 µM | [6] 6.3 µM | [7] 11.9 µM | [8] 2.52 µM | [9] 7.16 µM | [10] 8.09 µM | [11] 3.23 µM | [12] 3.96 µM | [13] 3.38 µM | [14] 3.67 µM | [15] 3.13 µM | [18] 4.72 µM | [19] 17.6 µM | [20] 1.35 µM

CC(C)=CCOc1cc(NC(=S)c2ccoc2C)ccc1Cl [UC 781]
inactive: [1] > 100 µM | [2] > 100 µM | [3] 84.1 µM | [4] > 100 µM | [5] > 100 µM | [6] 35.5 µM | [7] > 100 µM | [8] > 100 µM | [9] > 100 µM | [10] > 100 µM | [11] > 100 µM | [12] > 100 µM | [13] > 100 µM | [14] > 100 µM | [15] > 100 µM | [16] > 100 µM | [17] 34.7 µM | [18] > 100 µM | [19] > 100 µM | [20] 34.8 µM
